We go through 17 compounds from patent US11497752B2, “Compounds and uses thereof” (Foghorn Therapeutics Inc., priority 2018, dated 2022).

The target of one assay is BRM (Homo sapiens, UniProt P51531). Description: ATPase catalytic activity of BRM (ADP-Glo in vitro biochemical assay). To be noted: for BRM Max % Inhibition: Table 6.
The next assay deals with BRG-1 (Homo sapiens, UniProt P51532). Description: ATPase catalytic activity of BRG-1 (ADP-Glo in vitro biochemical assay). Particulars: for BRG1 Max % Inhibition: Table 6.
BRG-1, sequence (P51532 whole entry): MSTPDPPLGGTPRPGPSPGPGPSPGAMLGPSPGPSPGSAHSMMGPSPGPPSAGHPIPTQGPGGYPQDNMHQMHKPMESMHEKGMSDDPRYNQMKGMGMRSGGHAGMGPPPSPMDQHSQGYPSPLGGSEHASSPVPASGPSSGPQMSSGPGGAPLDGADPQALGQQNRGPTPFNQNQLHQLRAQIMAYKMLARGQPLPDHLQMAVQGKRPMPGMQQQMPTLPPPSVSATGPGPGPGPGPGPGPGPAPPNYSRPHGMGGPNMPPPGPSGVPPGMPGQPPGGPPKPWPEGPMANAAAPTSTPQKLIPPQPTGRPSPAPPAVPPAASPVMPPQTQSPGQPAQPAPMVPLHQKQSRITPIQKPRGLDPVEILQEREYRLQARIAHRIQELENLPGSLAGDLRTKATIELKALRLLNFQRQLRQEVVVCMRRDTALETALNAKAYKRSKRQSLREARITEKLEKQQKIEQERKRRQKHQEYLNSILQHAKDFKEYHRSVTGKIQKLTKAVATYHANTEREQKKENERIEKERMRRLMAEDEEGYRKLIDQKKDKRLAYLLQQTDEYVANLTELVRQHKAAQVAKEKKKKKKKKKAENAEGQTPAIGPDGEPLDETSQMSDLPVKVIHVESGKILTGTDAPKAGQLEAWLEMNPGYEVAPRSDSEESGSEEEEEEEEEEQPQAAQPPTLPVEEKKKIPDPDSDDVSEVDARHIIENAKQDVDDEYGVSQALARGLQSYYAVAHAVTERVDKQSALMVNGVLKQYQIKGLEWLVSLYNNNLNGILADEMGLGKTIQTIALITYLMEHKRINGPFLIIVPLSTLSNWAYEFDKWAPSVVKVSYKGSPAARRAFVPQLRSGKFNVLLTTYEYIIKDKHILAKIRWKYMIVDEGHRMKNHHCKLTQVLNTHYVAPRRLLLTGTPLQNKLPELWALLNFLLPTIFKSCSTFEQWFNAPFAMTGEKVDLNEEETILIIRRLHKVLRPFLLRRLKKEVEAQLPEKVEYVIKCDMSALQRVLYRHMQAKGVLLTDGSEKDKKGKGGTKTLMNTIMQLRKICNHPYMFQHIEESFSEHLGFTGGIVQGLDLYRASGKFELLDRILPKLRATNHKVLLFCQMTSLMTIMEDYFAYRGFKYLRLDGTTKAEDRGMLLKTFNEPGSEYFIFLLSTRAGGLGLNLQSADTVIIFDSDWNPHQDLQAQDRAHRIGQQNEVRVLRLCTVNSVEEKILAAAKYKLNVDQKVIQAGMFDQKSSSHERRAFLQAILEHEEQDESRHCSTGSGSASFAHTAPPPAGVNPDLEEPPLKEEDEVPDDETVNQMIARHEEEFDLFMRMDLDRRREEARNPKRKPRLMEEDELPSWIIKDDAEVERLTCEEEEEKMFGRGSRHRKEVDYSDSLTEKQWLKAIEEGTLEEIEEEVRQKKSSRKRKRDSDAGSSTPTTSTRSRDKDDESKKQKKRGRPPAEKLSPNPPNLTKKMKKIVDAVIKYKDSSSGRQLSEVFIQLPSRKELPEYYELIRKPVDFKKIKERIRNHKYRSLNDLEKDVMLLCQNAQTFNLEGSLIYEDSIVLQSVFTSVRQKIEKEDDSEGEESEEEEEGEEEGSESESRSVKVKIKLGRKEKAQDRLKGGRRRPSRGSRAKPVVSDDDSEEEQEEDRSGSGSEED

BRM, sequence (P51531 whole entry): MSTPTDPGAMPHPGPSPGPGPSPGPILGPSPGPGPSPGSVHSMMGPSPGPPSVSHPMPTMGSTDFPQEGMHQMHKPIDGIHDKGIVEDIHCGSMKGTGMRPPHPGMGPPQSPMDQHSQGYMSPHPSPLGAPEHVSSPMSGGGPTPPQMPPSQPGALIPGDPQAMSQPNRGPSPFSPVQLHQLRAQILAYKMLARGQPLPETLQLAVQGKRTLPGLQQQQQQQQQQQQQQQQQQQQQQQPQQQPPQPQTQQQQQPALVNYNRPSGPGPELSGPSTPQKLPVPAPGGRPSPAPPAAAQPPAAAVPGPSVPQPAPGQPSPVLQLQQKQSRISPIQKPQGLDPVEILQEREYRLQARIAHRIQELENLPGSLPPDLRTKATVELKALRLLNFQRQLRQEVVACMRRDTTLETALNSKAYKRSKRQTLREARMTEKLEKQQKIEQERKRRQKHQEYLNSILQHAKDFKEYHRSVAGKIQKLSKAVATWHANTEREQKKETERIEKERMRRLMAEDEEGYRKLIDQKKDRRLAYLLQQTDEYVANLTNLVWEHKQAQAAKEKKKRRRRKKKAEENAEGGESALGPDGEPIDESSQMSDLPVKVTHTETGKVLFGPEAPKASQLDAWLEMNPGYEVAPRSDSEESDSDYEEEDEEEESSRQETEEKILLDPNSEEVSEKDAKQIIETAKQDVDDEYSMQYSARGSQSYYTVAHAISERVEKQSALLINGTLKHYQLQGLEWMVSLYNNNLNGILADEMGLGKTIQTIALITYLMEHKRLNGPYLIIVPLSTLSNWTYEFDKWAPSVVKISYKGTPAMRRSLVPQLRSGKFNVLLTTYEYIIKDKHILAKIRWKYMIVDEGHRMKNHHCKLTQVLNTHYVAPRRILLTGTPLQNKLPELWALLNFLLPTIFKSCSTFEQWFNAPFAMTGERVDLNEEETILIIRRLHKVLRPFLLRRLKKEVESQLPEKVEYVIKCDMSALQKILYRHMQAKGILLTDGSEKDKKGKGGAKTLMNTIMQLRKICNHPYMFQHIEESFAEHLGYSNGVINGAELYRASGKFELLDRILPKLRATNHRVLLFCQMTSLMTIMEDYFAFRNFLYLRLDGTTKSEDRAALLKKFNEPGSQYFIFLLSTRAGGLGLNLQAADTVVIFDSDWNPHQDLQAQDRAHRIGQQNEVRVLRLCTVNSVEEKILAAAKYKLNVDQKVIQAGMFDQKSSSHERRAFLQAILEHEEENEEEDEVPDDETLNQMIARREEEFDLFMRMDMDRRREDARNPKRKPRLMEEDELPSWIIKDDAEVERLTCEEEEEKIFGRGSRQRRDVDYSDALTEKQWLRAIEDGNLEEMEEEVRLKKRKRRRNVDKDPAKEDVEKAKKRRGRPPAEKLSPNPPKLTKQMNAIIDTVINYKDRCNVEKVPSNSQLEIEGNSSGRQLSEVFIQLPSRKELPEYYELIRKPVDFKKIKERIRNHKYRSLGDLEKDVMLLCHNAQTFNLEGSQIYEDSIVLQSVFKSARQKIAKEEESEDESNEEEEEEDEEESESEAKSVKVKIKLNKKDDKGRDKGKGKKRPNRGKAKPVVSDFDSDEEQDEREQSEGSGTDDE

As to `O=C(CNC(=O)c1ccc(N2CC(O)C2)cc1)Nc1nc(-c2cccc(-c3ccncc3)c2)cs1` [Compound 103, 4-(3-hydroxyazetidin-1-yl)-N-(2-oxo-2-((4-(3-(pyridin-4-yl)\phenyl)thiazol-2-yl)amino)ethyl)benzamide], on BRM, the IC50 lay within 100 to 1000 nM and the “BRM Max % Inhibition” value is above 70%. For the same compound, at BRG-1, the concentration for half-maximal inhibition (IC50) was 1000 to 10000 nM and the “BRG1 Max % Inhibition” value was above 80%.

Take `CS(=O)(=O)c1ccnc(C(=O)NCC(=O)Nc2nc(-c3cccc(-c4ccncc4)c3)cs2)c1` [Compound 104, 4-methylsulfonyl-N-[2-oxo-2-[[4-[3-(4-pyridyl)phenyl]thiazol-2-yl]amino]ethyl]pyridine-2-carboxamide]: on BRM, the IC50 was below 100 nM and the “BRM Max % Inhibition” value was above 70%. Besides, on BRG-1, the IC50 was below 100 nM and the “BRG1 Max % Inhibition” value is above 60%.

On to `O=C(CNC(=O)c1ccc2c(c1)CC(O)CN2)Nc1nc(-c2cccc(-c3ccncc3)c2)cs1` (centres unmarked) [Compound 105, 3-hydroxy-N-[2-oxo-2-[[4-[3-(4-pyridyl)phenyl]thiazol-2-yl]amino]ethyl]-1,2,3,4-tetrahydroquinoline-6-carboxamide], for which, on BRM, the IC50 lay in the range of 100 to 1000 nM and the “BRM Max % Inhibition” value is reported as above 80%. At BRG-1, the IC50 was 100 to 1000 nM and the “BRG1 Max % Inhibition” value is given as above 50%.

On to `CSCC[C@H](NC(=O)c1ccc(N)cc1)C(=O)Nc1nc(-c2ccc(C#N)cc2)cs1` [Compound 107, (S)-4-amino-N-(1-((4-(4-cyanophenyl)thiazol-2-yl)amino)-4-(methylthio)-1-oxobutan-2-yl)benzamide], for which, at BRM, the IC50 fell in the range of 100 to 1000 nM and the “BRM Max % Inhibition” value was above 95%. Besides, at BRG-1, the IC50 was 1000 to 10000 nM and the “BRG1 Max % Inhibition” value is listed as above 95%.

For the compound `Nc1ccc(C(=O)NCC(=O)Nc2nc(-c3ccc4c(c3)OCCO4)cs2)cc1` [Compound 109, 4-amino-N-(2-((4-(2,3-dihydrobenzo[b][1,4]dioxin-6-yl)thiazol-2-yl)amino)-2-oxoethyl)benzamide], at BRM, the IC50 lay within 100 to 1000 nM and the “BRM Max % Inhibition” value is above 90%. For the same compound, at BRG-1, the IC50 is 100 to 1000 nM and the “BRG1 Max % Inhibition” value was above 90%.

For the compound `COC(=O)N1CCC=C(c2csc(NC(=O)CNC(=O)c3ccc(N)cc3)n2)C1` [Compound 110, methyl 3-(2-(2-(4-aminobenzamido)acetamido)thiazol-4-yl)-5,6-dihydropyridine-1(2H)-carboxylate], on BRM, the concentration for half-maximal inhibition (IC50) was 100 to 1000 nM and the “BRM Max % Inhibition” value was above 80%. In addition, on BRG-1, the IC50 fell in the range of 1000 to 10000 nM and the “BRG1 Max % Inhibition” value is above 80%.

For `Nc1ccc(C(=O)NCC(=O)Nc2nc(-c3ccc4c(c3)CCO4)cs2)cc1` [Compound 111, 4-amino-N-(2-((4-(2,3-dihydrobenzofuran-5-yl)thiazol-2-yl)amino)-2-oxoethyl)benzamide], on BRM, the IC50 was 100 to 1000 nM and the “BRM Max % Inhibition” value is above 90%. For the same compound, on BRG-1, the IC50 lay in the range of 100 to 1000 nM and the “BRG1 Max % Inhibition” value was above 90%.

Turning to `Nc1ccc(C(=O)NCC(=O)Nc2nc(-c3ccc4c(c3)OCC4)cs2)cc1` [Compound 112, 4-amino-N-(2-((4-(2,3-dihydrobenzofuran-6-yl)thiazol-2-yl)amino)-2-oxoethyl)benzamide], at BRM, the IC50 lay in the range of 100 to 1000 nM and the “BRM Max % Inhibition” value is reported as above 90%. In addition, on BRG-1, the IC50 is 100 to 1000 nM and the “BRG1 Max % Inhibition” value is given as above 80%.

Consider `Nc1ccc(C(=O)NCC(=O)Nc2nc(-c3ccccc3O)cs2)cc1` [Compound 114, 4-amino-N-(2-((4-(2-hydroxyphenyl)thiazol-2-yl)amino)-2-oxoethyl)benzamide], for which, on BRM, the IC50 fell in the range of 100 to 1000 nM and the “BRM Max % Inhibition” value is listed as above 80%. Moreover, on BRG-1, the IC50 is 1000 to 10000 nM and the “BRG1 Max % Inhibition” value is above 80%.

For the compound `Nc1ccc(C(=O)NCC(=O)Nc2nc(-c3ccc(O)cc3)cs2)cc1` [Compound 115, 4-amino-N-(2-((4-(4-hydroxyphenyl)thiazol-2-yl)amino)-2-oxoethyl)benzamide], at BRM, the IC50 lay within 100 to 1000 nM and the “BRM Max % Inhibition” value is on record as above 90%. Moreover, on BRG-1, the IC50 lay in the range of 100 to 1000 nM and the “BRG1 Max % Inhibition” value is listed as above 90%.

For `CSCC[C@H](NC(=O)c1ccc(N)cc1)C(=O)Nc1nc(-c2cc(C#N)cc(-c3ccccc3)c2)cs1` [Compound 116, (S)-4-amino-N-(1-((4-(5-cyano-[1,1′-biphenyl]-3-yl)thiazol-2-yl)amino)-4-(methylthio)-1-oxobutan-2-yl)benzamide], at BRM, the IC50 was 100 to 1000 nM and the “BRM Max % Inhibition” value is reported as above 95%. At BRG-1, the IC50 was 100 to 1000 nM and the “BRG1 Max % Inhibition” value is on record as above 95%.

On to `CSCC[C@H](NC(=O)c1ccc(N)cc1)C(=O)Nc1nc(-c2cccc(-c3ccc(CN)cc3)c2)cs1` [Compound 118, (S)-4-amino-N-(1-((4-(4′-(aminomethyl)-[1,1′-biphenyl]-3-yl)thiazol-2-yl)amino)-4-(methylthio)-1-oxobutan-2-yl)benzamide], for which, at BRM, the IC50 was in the range of 100 to 1000 nM and the “BRM Max % Inhibition” value is above 90%. On BRG-1, the IC50 was 1000 to 10000 nM and the “BRG1 Max % Inhibition” value is reported as above 90%.

For `CSCC[C@H](NC(=O)c1ccc(N)cc1)C(=O)Nc1nc(-c2ccc(C#N)c(-c3ccccc3)c2)cs1` [Compound 119, (S)-4-amino-N-(1-((4-(6-cyano-[1,1′-biphenyl]-3-yl)thiazol-2-yl)amino)-4-(methylthio)-1-oxobutan-2-yl)benzamide], at BRM, the IC50 was in the range of 100 to 1000 nM and the “BRM Max % Inhibition” value is listed as above 95%. Besides, at BRG-1, the IC50 lay within 1000 to 10000 nM and the “BRG1 Max % Inhibition” value is given as above 95%.

With `CSCC[C@H](NC(=O)c1ccc(N)cc1)C(=O)Nc1nc(-c2cccc(CNC(C)=O)c2)cs1` [Compound 120, (S)-N-(1-((4-(3-(acetamidomethyl)phenyl)thiazol-2-yl)amino)-4-(methylthio)-1-oxobutan-2-yl)-4-aminobenzamide], at BRM, the IC50 was 100 to 1000 nM and the “BRM Max % Inhibition” value is recorded as above 90%. Moreover, on BRG-1, the IC50 is 100 to 1000 nM and the “BRG1 Max % Inhibition” value is above 90%.

With `CSCC[C@H](NC(=O)c1ccc(N)cc1)C(=O)Nc1nc(-c2ccc(CNC(C)=O)cc2)cs1` [Compound 121, (S)-N-(1-((4-(4-(acetamidomethyl)phenyl)thiazol-2-yl)amino)-4-(methylthio)-1-oxobutan-2-yl)-4-aminobenzamide], on BRM, the IC50 lay in the range of 100 to 1000 nM and the “BRM Max % Inhibition” value is recorded as above 95%. At BRG-1, the IC50 fell in the range of 100 to 1000 nM and the “BRG1 Max % Inhibition” value is above 95%.

Turning to `COC(=O)N1CCC[C@H](c2csc(NC(=O)CNC(=O)c3ccc(N)cc3)n2)C1` [Compound 122, (S)-methyl 3-(2-(2-(4-aminobenzamido)acetamido)thiazol-4-yl)piperidine-1-carboxylate], on BRM, the IC50 is 100 to 1000 nM and the “BRM Max % Inhibition” value is above 95%. For the same compound, at BRG-1, the IC50 was in the range of 1000 to 10000 nM and the “BRG1 Max % Inhibition” value is above 90%.

For `CC(=O)NCc1ccc(-c2cccc(-c3csc(NC(=O)CNC(=O)c4ccc(N)cc4)n3)c2)cc1` [Compound 123, N-(2-((4-(4′-(acetamidomethyl)-[1,1′-biphenyl]-3-yl)thiazol-2-yl)amino)-2-oxoethyl)-4-aminobenzamide], on BRM, the IC50 lay in the range of 100 to 1000 nM and the “BRM Max % Inhibition” value is above 80%. On BRG-1, the IC50 is 100 to 1000 nM and the “BRG1 Max % Inhibition” value is given as above 80%.
